Measured values published in publication PMC6923452, “SHBG141–161 Domain-Peptide Stimulates GPRC6A-Mediated Response in Leydig and β-Langerhans cell lines” (Scientific Reports, 2019).
“Also recorded” adds a separate entry of the source. No end group written: not given here.

Assays:
GPRC6A [1] = tested on: GPRC6A; set-up: method as in 2 sources, ref 5 = [5]; PMID 15576628; doi:10.1124/mol.104.007559; 5. Wellendorph P Deorphanization of GPRC6A: a promiscuous L-alpha-amino acid receptor with preference for basic amino acids Molecular Pharmacology 2005 67 3 589 97 10.1124/mol.104.007559 15576628 ||| ref 6 = [6]; PMID 20947496; doi:10.1074/jbc.M110.158063; 6. Pi M Parrill AL Quarles LD GPRC6A mediates the non-genomic effects of steroids Journal of Biological Chemistry 2010 285 51 39953 64 10.1074/jbc.M110.158063 20947496 PMC3000977; settings: cited from earlier work
GPRC6A [2] = experiment: Displacement of labelled ucOCN by SHBG141–161 on HEK-293 cells transfected with human Gprc6a; format: binding; settings: for staining signal for labelled ucOCN vs ucOCN alone: 1 nM biotinylated ucOCN, 1 h room temperature, binding buffer pH 7.4, streptavidin-FITC, image analysis, mean of 3 independent experiments
Protocol: The binding of SHBG141–161 to GPRC6A was assessed by displacement experiments as previously described. To this aim, HEK-293 cells were transfected with human Gprc6a gene (Fig. 2C-I,II). The efficiency of the procedure was evaluated by real-time PCR, allowing the identification of a specific signal for Gprc6a gene only in transfected cells. Accordingly, a specific membrane signal was observed by immunostaining only in transfected cells. On these bases, HEK-293 cells transfected with Gprc6a gene were incubated with 1 nM labelled ucOCN and SHBG141–161 at the concentration of 0, 10 nM (10×) and 100 nM (100×) (Fig. 2D-I,II).
Human embryonic kidney (HEK)-293T cells (passage number 11 to 15) were obtained from the American Type Culture Collection (ATCC®-LGC Standards Sesto San Giovanni, MI, Italy) and cultivated in DMEM [ATCC®; RRID 30–2002) and supplemented with 10% fetal bovine serum (Euroclone, Milano, Italy; RRID: ECS0180L) and 1%antibiotic/antimycotic mixture in a humidified incubator at 37 °C with 5% CO2. Expression vector containing wild-type (WT) human GPRC6A cDNA (OriGene Technologies, Inc) was used according to manufacturer’s instruction. Briefly, cultured HEK- 293 T cells at 70% of confluence were transfected by FuGENE 6 (Roche Diagnostics) with 1 μg/well of GPRC6A-pcDNA and maintained for 48 hours, followed by overnight starving in serum-free condition to achieve quiescence. HEK-293T cells transfected with empty vector were used as negative controls. Starved cells were fixed in 1% paraformaldehyde and used for binding assessment by incubation for 1 h at room temperature with biotinylated ucOCN, with or without SHBG141–161 in ice-cold-binding buffer (50 mM Tris-HCl [pH 7.4], 10 mM MgCl2, 0.1 mM EDTA, and 0.1% BSA) according to the different experimental conditions used. After extensive washing in cold PBS, samples were incubated with streptavidin-Fluorescein isothiocyanate (FITC) (dilution 1:200; Sigma-Aldrich; RRID: S3762). Evaluation of GPRC6A expression by immunofluorescence was performed as described for β-TC6 (see below). Computer assisted image analysis was performed by the ImageJ image analysis software, powered by routines specifically developed by our group as previously described[43],[44]. […]

MA-10 cells = experiment: Testosterone (T) release from Leydig MA-10 cells (GPRC6A-mediated); format: cell-based, Mouse; settings: for agonist activity (T release) after GPRC6A blockade: pre-incubation with anti-GPRC6A polyclonal antibodies 20 mg/mL, 30 minutes at 37 °C; for T release vs basal: 48 hours; for effect of SHBG pre-incubation on T release induced by SHBG141–161: then SHBG141–161 10^−11M
Protocol: Human ucOCN was obtained from chemical decarboxylation of cxOCN, purchased from Bachem AG (Bachem, Bubendorf, Switzerland), as previously described. For displacement experiments, an aliquot ucOCN underwent chemical biotinylation as previously described[9],[41]. Unliganded human SHBG was purchased by […], Belgium). Human chorionic gonadotropin Gonasi was purchased by IBSA Farmaceutici Srl (Italy). Mouse Leydig-carcinoma cell line MA-10 (passage number 3 to 8; ATCC®; RRID: CRL-1573) were cultured on 0,1% gelatin/PBS-coated plasticware according to the manufacturer's instructions and maintained in DMEM:F12 Medium (ATCC®; RRID: 30-2006; pH 7,4) supplemented with additional 20 mM HEPES and horse serum to a final concentration of 15%. For immunofluorescence experiments, cells were let attach on 0,1% gelatin/PBS-coated round-coverslips (ø 13 mm, Menzel-Gläser-VWR International Srl, Milan, Italy) and then washed and fixed with 4% paraformaldehyde/PBS solution at room temperature for 15 min. After membrane permeabilization with 1% Triton X/PBS solution for 10 min at room temperature, cells were saturated with 5% bovine serum albumin/5% normal donkey serum/PBS solution for 1 hour and then incubated with rabbit-polyclonal anti-mouse GPRC6A IgG (dilution 1:200; Santa Cruz Biotechnology Inc. Heidelberg Germany; RRID: sc-67302,) and goat-polyclonal anti-human INSL3 IgG (dilution 1:200; Santa Cruz Biotechnology Inc; RRID: sc-48550) at 4 °C overnight. After extensive washing, primary immunoreaction was detected by appropriate secondary reagent, respectively: biotin conjugated-anti rabbit IgG (dilution 1:100; Vector Laboratories, Peterborough, UK; RRID: BA-1000) followed by Streptavidin […], (dilution 1:100; GeneTex/Prodotti Gianni, Milano, Italy; RRID: GTX85907) and FITC conjugated-anti goat IgG (dilution 1:100; Abcam, Milan, Italy; RRID: ab6737). Samples were then counterstained with 4',6-diamidino-2-phenylindole (DAPI), mounted with anti-fade buffer and then analyzed with Video-Confocal (VICO) fluorescence microscope (Nikon, Firenze, Italy). […] RRID: KGE010) according to manufacturer's instructions. Receptor blockade experiments were performed by pre-incubating cultured cells with anti-GPRC6A polyclonal antibodies (final concentration of […]; Santa Cruz Biotechnology Inc; RRID: sc-67302) for 30 minutes at 37 °C as previously described.

β-TC6 cells = experiment: Insulin release from Langerhans β-TC6 cells (GPRC6A-mediated); format: cell-based, Mouse; settings: for agonist activity (insulin release) after GPRC6A blockade: pre-incubation with anti-GPRC6A polyclonal antibodies 20 mg/mL, 30 minutes at 37 °C; for insulin release vs basal: 2 hours at 37 °C in 3 mM glucose/HBSS; for effect of SHBG pre-incubation on insulin release induced by SHBG141–161: then SHBG141–161 10^−11M
[3] = Far-UV circular dichroism; format: physicochemical; settings: 25 °C, PBS (20 mM sodium phosphate, pH 7.4, 0.1 M NaCl), 70 μg/ml
Protocol: The conformational properties of SHBG141–161 were investigated by far-UV circular dichroism (CD) on a Jasco J-710 spectropolarimeter, equipped with a Peltier temperature control system. The molar concentration of the peptide was determined spectrophotometrically by recording the absorbace at 257 nm, using an absorptivity value for phenylalanine of 200 M-1·cm-1. CD spectra were recorded at 25 °C in a 1-mm pathlength quartz cell at a scan-speed of 10 nm/min, with a response time of 16 sec, and resulted from the average of two accumulations after baseline subtraction. CD signal was expressed as the mean residue ellipticity (θ) = θobs·MRW/(10·l·c), where θobs is the observed signal in degrees, MRW is the protein mean residue weight, l is the cuvette pathlength in cm, and c is the protein concentration in g/ml.

[4] = tested on: extracellular domain of GPRC6A; settings: previous study; immunoprecipitation assays; cited from earlier work
From the text: To this regard, our group recently reported that sex hormone-binding protein (SHBG), the major blood carrier of T, is able to bind the extrace ... || If on one hand these represent encouraging results about the reliability of GPRC6A as therapeutic target, on the other hand, drug peptides and biologics drown great interest for their favorable safety profile, target specificity and pharmacokinetics compared with traditional small-molecule drugs. To this regard, the metabotropic receptor GPRC6A has been widely investigated as the mediator of non-genomic effects of androgens.

[5] = SHBG141–161 concentrations greater than 10^−9 M, preliminary experiments, data not shown
[6] = SHBG 10^−14-10^−9M, any of the concentration tested
[7] = increasing SHBG, 1 hour at 37 °C

## N=C(N)NCCC[C@H](N)C(=O)O [L arginine]
GPRC6A [1]
  activation of GPRC6A: activated

## magnesium
GPRC6A [1]
  activation of GPRC6A: activated

## NCCCC[C@H](N)C(=O)O [L-lysine]
GPRC6A [1]
  activation of GPRC6A: activated

## ucOCN: Human ucOCN was obtained from chemical decarboxylation of cxOCN, purchased from Bachem AG (YLYQWLGAPVPYPDPLEPRREVCELNPDCDELADHIGFQEAYRRFYGPV; ends and bridges not checked; also: undercarboxylated by chemical decarboxylation of carboxylated OCN; UniProt P02818 52-100, looked up)
GPRC6A [2]; 1 nM labelled ucOCN, HEK-293 + GPRC6A
  membrane signal of labelled ucOCN alone, transfected cells: clear membrane signal associated with GPRC6A expression
GPRC6A [2]; 1 nM labelled ucOCN, HEK-293 without GPRC6A
  staining of labelled ucOCN, non-transfected cells: absence of significant staining in non-transfected cells
MA-10 cells
  agonist activity (T release) after GPRC6A blockade: completely abolished the agonist activity
MA-10 cells; ucOCN 0,5–2 nM
  T release vs basal: progressive and significant increase of T release
β-TC6 cells
  agonist activity (insulin release) after GPRC6A blockade: completely abolished the agonist activity
β-TC6 cells; ucOCN 0,5–2 nM
  insulin release vs basal: significant and dose dependent increase of insulin release

## C[C@]12CC[C@H]3[C@@H](CCC4=CC(=O)CC[C@@]43C)[C@@H]1CC[C@@H]2O [T, testosterone]
GPRC6A [1]
  non-genomic action mediated by GPRC6A: mediator of non-genomic action of T

## calcium
GPRC6A [1]
  activation of GPRC6A: activated

## IALGGLLFPASNLRLPLVPAL [SHBG141–161]
GPRC6A [2]; 0, 10 nM and 100 nM SHBG141–161, 1 nM labelled ucOCN
  competition with ucOCN for binding to GPRC6A (overall result): progressive reduction of the signal for labelled ucOCN; also recorded: compete with ucOCN for the binding to GPRC6A; also recorded: partial competition activity
GPRC6A [2]; SHBG141–161 10 nM (10×)
  staining signal for labelled ucOCN vs ucOCN alone: significant reduction of the staining signal for ucOCN
GPRC6A [2]; SHBG141–161 100 nM (100×)
  staining signal for labelled ucOCN vs ucOCN alone: significant reduction of the staining signal for ucOCN
MA-10 cells; SHBG141–161, particularly 10^−13 to 10^−11M, five independent experiments
  T release vs basal: increase of T release
MA-10 cells; [5]
  T release at high concentration: not effective
MA-10 cells
  agonist activity (T release) after GPRC6A blockade: completely abolished the agonist activity
β-TC6 cells; SHBG141–161 10^−13 to 10^−10 M, five independent experiments
  insulin release vs basal: significant increased insulin levels in culture supernatants
β-TC6 cells; [5]
  insulin release at high concentration: not effective
β-TC6 cells
  agonist activity (insulin release) after GPRC6A blockade: completely abolished the agonist activity
[3]
  conformation by far-UV CD: random or non-regular conformation
  far-UV CD minimum: 200 nm

## zinc
GPRC6A [1]
  activation of GPRC6A: activated

B1: SHBG: Unliganded human SHBG was purchased by Affiland; the major blood carrier of T (protein, UniProt P04278 30-402, looked up)
Sex hormone-binding globulin: LRPVLPTQSAHDPPAVHLSNGPGQEPIAVMTFDLTKITKTSSSFEVRTWDPEGVIFYGDTNPKDDWFMLGLRDGRPEIQLHNHWAQLTVGAGPRLDDGRWHQVEVKMEGDSVLLEVDGEEVLRLRQVSGPLTSKRHPIMRIALGGLLFPASNLRLPLVPALDGCLRRDSWLDKQAEISASAPTSLRSCDVESNPGIFLPPGTQAEFNLRDIPQPHAEPWAFSLDLGLKQAAGSGHLLALGTPENPSWLSLHLQDQKVVLSSGSGPGLDLPLVLGLPLQLKLSMSRVVLSQGSKMKALALPPLGLAPLLNLWAKPQGRLFLGALPGEDSSTSFCLNGLWAQGQRLDVDQALNRSHEIWTHSCPQSPGNGTDASH
MA-10 cells; SHBG 10^−12M, 1 hour at 37 °C
  effect of SHBG pre-incubation on T release induced by SHBG141–161: complete blunt of the secretory stimulating activity
MA-10 cells; SHBG 10^−13M, 1 hour at 37 °C
  effect of SHBG pre-incubation on T release induced by SHBG141–161: significant reduction of T release; also recorded: significantly blunted
MA-10 cells; [6]
  induction of T release by SHBG alone: ineffective
MA-10 cells; SHBG, any of the concentration tested, 1 hour at 37 °C, then hCG 2,5 nM
  effect of SHBG pre-incubation on T release induced by hCG: negligible effect on T and insulin release
MA-10 cells; [7]
  effect of SHBG pre-incubation on T release induced by SHBG141–161: progressive reduction of T and insulin release
β-TC6 cells; SHBG 10^−12M, 1 hour at 37 °C
  effect of SHBG pre-incubation on insulin release induced by SHBG141–161: complete blunt of the secretory stimulating activity
β-TC6 cells; [6]
  induction of insulin release by SHBG alone: ineffective
β-TC6 cells; SHBG, any of the concentration tested, 1 hour at 37 °C, then 15 mM glucose + 100 μM IBMX
  effect of SHBG pre-incubation on insulin release induced by IBMX/glucose: negligible effect on T and insulin release
β-TC6 cells; [7]
  effect of SHBG pre-incubation on insulin release induced by SHBG141–161: progressive reduction of T and insulin release
[4]
  binding to GPRC6A: simple binding observed through immunoprecipitation assays; also recorded: able to bind the extracellular domain of GPRC6A
